Measurements from the supplement of paper PMC4862054.

Columns and labels:
Settings in all cases: incubation time: 72 h
BT-549 [1] = test: normalised response (% of control), CellTiter-Glo; higher = more viable cells (100 = DMSO, 0 = benzethonium chloride kill control)
How it was run: (§1)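 After 72 h with compound in 384-well plates, breast cancer cell lines seeded as 20 µl suspension were read for CellTox Green fluorescence at 485/520 nm. CellTiter-Glo luminescence was then read after 10 min at room temperature. Compound was present at 5 concentrations in 10-fold steps over a 10,000-fold range set per compound, and plates were normalised to 0.1 % DMSO (100) and a positive kill control (0). Values are normalised signals, each at a single concentration.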

MCF-10A [2] = test: as above
How it was run: as §1

MDA-MB-231 [3] = test: as above
How it was run: as §1

HCC1937 [4] = test: as above
How it was run: as §1

Hs578T [5] = test: as above
How it was run: as §1

CAL-51 [6] = test: as above
How it was run: as §1

HCC1599 [7] = test: as above
How it was run: as §1

BT-474 [8] = test: as above
How it was run: as §1

HDQ-P1 [9] = test: as above
How it was run: as §1

CAL-85-1 [10] = test: as above
How it was run: as §1

MDA-MB-436 [11] = test: as above
How it was run: as §1

SK-BR-3 = test: as above
How it was run: as §1

MDA-MB-468 [12] = test: as above
How it was run: as §1

CAL-120 [13] = test: as above
How it was run: as §1

HCC1143 [14] = test: as above
How it was run: as §1

MFM-223 [15] = test: as above
How it was run: as §1

CAL-148 [16] = test: as above
How it was run: as §1

DU-4475 [17] = test: as above
How it was run: as §1

MDA-MB-453 [18] = test: as above
How it was run: as §1

BT-549 [19] = test: normalised response (% of control), CellTox Green; higher = less cell death (100 = DMSO, 0 = benzethonium chloride kill control)
How it was run: as §1

MCF-10A [20] = test: as above
How it was run: as §1

MDA-MB-231 [21] = test: as above
How it was run: as §1

HCC1937 [22] = test: as above
How it was run: as §1

Hs578T [23] = test: as above
How it was run: as §1

CAL-51 [24] = test: as above
How it was run: as §1

HCC1599 [25] = test: as above
How it was run: as §1

BT-474 [26] = test: as above
How it was run: as §1

HDQ-P1 [27] = test: as above
How it was run: as §1

CAL-85-1 [28] = test: as above
How it was run: as §1

MDA-MB-436 [29] = test: as above
How it was run: as §1

MDA-MB-468 [30] = test: as above
How it was run: as §1

CAL-120 [31] = test: as above
How it was run: as §1

HCC1143 [32] = test: as above
How it was run: as §1

MFM-223 [33] = test: as above
How it was run: as §1

CAL-148 [34] = test: as above
How it was run: as §1

DU-4475 [35] = test: as above
How it was run: as §1

MDA-MB-453 [36] = test: as above
How it was run: as §1

SMILES	normalised response (BT-549 [1]) [%]	normalised response (MCF-10A [2]) [%]	normalised response (MDA-MB-231 [3]) [%]	normalised response (HCC1937 [4]) [%]	normalised response (Hs578T [5]) [%]	normalised response (CAL-51 [6]) [%]	normalised response (HCC1599 [7]) [%]	normalised response (BT-474 [8]) [%]	normalised response (HDQ-P1 [9]) [%]	normalised response (CAL-85-1 [10]) [%]	normalised response (MDA-MB-436 [11]) [%]	normalised response (SK-BR-3) [%]	normalised response (MDA-MB-468 [12]) [%]	normalised response (CAL-120 [13]) [%]	normalised response (HCC1143 [14]) [%]	normalised response (MFM-223 [15]) [%]	normalised response (CAL-148 [16]) [%]	normalised response (DU-4475 [17]) [%]	normalised response (MDA-MB-453 [18]) [%]	normalised response (BT-549 [19]) [%]	normalised response (MCF-10A [20]) [%]	normalised response (MDA-MB-231 [21]) [%]	normalised response (HCC1937 [22]) [%]	normalised response (Hs578T [23]) [%]	normalised response (CAL-51 [24]) [%]	normalised response (HCC1599 [25]) [%]	normalised response (BT-474 [26]) [%]	normalised response (HDQ-P1 [27]) [%]	normalised response (CAL-85-1 [28]) [%]	normalised response (MDA-MB-436 [29]) [%]	normalised response (MDA-MB-468 [30]) [%]	normalised response (CAL-120 [31]) [%]	normalised response (HCC1143 [32]) [%]	normalised response (MFM-223 [33]) [%]	normalised response (CAL-148 [34]) [%]	normalised response (DU-4475 [35]) [%]	normalised response (MDA-MB-453 [36]) [%]
Cc1ccc(F)c(NC(=O)Nc2ccc(-c3cccc4[nH]nc(N)c34)cc2)c1 [Linifanib] (10 nM)	96.7	110	111	99.5	105	102	108	107	97.3	92.7	108	103	106	102	107	106	112	105	97.2	96.7	56.1	91.7	104	87	109	111	99.7	112	97.2	72.8	121	99.2	108	108	108	102	108
S=c1[nH]cnc2nc[nH]c12 [Mercaptopurine] (100 nM)	104	94.6	101	94	96.6	96.9	91.3	95.1	105	90.8	96.1	98.3	88.4	92.5	104	98.5	81.7	96.8	95.5	94.6	99.5	80.6	101	92.4	94.5	98	91.2	66.2	108	102	134	98.4	91.9	82.7	95.9	98.8	103
Clc1ccc(C(c2ccccc2Cl)C(Cl)Cl)cc1 (configuration not stated) [Mitotane] (100 nM)	99.6	92.2	98.7	95.4	95.3	94.8	93.7	94	102	101	97.8	97.7	92.9	97.8	100	95.6	96.2	97.2	95.5	94.6	78.6	95.5	95	91.4	101	100	100	95.8	105	88.1	120	92	92.2	77.9	101	97.9	106
C=CC[C@@H]1/C=C(\C)C[C@H](C)C[C@H](OC)[C@H]2O[C@@](O)(C(=O)C(=O)N3CCCC[C@H]3C(=O)O[C@H](/C(C)=C/[C@@H]3CC[C@@H](O)[C@H](OC)C3)[C@H](C)[C@@H](O)CC1=O)[C@H](C)C[C@@H]2OC [Tacrolimus] (100 nM)	98.2	102	110	98	96.5	77.2	95.9	100	97.7	94.6	96.4	89.7	93	98.8	101	106	111	101	103	104	57.2	104	107	95.7	91	95.4	100	69.4	93.4	103	186	100	99.5	101	82	100	97.8
CO[C@H]1C[C@@H]2CC[C@@H](C)[C@@](O)(O2)C(=O)C(=O)N2CCCC[C@H]2C(=O)O[C@H]([C@H](C)C[C@@H]2CC[C@@H](OC(=O)C(C)(CO)CO)[C@H](OC)C2)CC(=O)[C@H](C)/C=C(\C)[C@@H](O)[C@@H](OC)C(=O)[C@H](C)C[C@H](C)/C=C/C=C/C=C/1C [Temsirolimus] (1 nM)	68.4	102	98.8	77.8	69.9	68.3	111	90.8	94.4	74.8	87.2	68.7	56.3	83.4	77.4	79.6	82.5	92.3	88.4	109	99.6	94.2	118	66.9	94.9	109	89.6	113	97.9	99.8	135	102	117	90.2	96.7	97.5	100
CC[C@]1(O)C[C@@H]2CN(CCc3c([nH]c4ccccc34)[C@@](C(=O)OC)(c3cc4c(cc3OC)N(C)[C@H]3[C@@](O)(C(=O)OC)[C@H](OC(C)=O)[C@]5(CC)C=CCN6CC[C@]43[C@@H]65)C2)C1 [Vinblastine] (10 nM)	39.1	51.6	57.8	71	55.4	58.1	70.4	58.2	76.1	29.4	36	12.3	33.9	51.5	48.6	77.1	70.8	96.1	57.4	65.2	16.4	-19.5	92.3	71.2	30.4	84.7	72.6	40.4	31.4	44.7	110	73.6	92	69.6	82.7	102	98
